Measured values reported in ChEMBL document CHEMBL5625222, “Design, synthesis, and biological evaluation of 1,6-naphthyridine-2-one derivatives as novel FGFR4 inhibitors for the treatment of colorectal cancer” (Eur J Med Chem, 2023).
The source made the active and inactive calls. The rule behind the calls is not given here.

Columns and labels:
[1] = Toxicity in ICR mouse assessed as histopathological change in liver at 20 mg/kg,po administrated for 1 week by hematoxylin and eosin staining analysis; format: organism-based; conditions: in vivo, 168 h, time 1 weeks
[2] = Toxicity in ICR mouse assessed as change in liver weight at 20 mg/kg,po administrated for 1 week; format: organism-based; conditions: in vivo, 168 h, time 1 weeks
[3] = Hepatotoxicity in ICR mouse assessed as change in serum AST level at 60 mg/kg,po administrated for 1 week; format: toxicity, organism-based; conditions: in vivo, 168 h, time 1 weeks
[4] = Toxicity in BALB/c mouse xenografted with human HCT-116 cells assessed as change in spleen weight at 20 mg/kg,ip administrated for 2 weeks; format: organism-based; conditions: in vivo, 336 h
[5] = Toxicity in BALB/c mouse xenografted with human HCT-116 cells assessed as change in lung weight at 10 mg/kg,ip administrated for 2 weeks; format: organism-based; conditions: in vivo, 336 h
[6] = Toxicity in ICR mouse assessed as change in heart weight at 60 mg/kg,po administrated for 1 week; format: organism-based; conditions: in vivo, 168 h, time 1 weeks
HCT-116 [7] = assay: Anti-migration activity in human HCT-116 cells assessed as downregulation of FAK phosphorylation by Western blotting analysis; format: functional, cell-based
[8] = Drug uptake in BALB/c mouse colon at 20 mg/kg,ip administrated for 2 hrs by LC-MS analysis; format: ADME, organism-based; conditions: in vivo
[9] = Toxicity in ICR mouse assessed as change in lung weight at 20 mg/kg,po administrated for 1 week; format: organism-based; conditions: in vivo, 168 h, time 1 weeks
[10] = Toxicity in ICR mouse assessed as change in liver weight at 60 mg/kg,po administrated for 1 week; format: organism-based; conditions: in vivo, 168 h, time 1 weeks
[11] = Antiproliferative activity against human Intestinal epithelial cell assessed as inhibition of cell growth incubated for 48 hrs by MTT assay; format: toxicity, cell-based; conditions: human intestinal epithelial cells
SW480 [12] = assay: Anti-migration activity in human SW480 cells assessed as upregulation of E-cad expression by Western blotting analysis; format: functional, cell-based
SW480 [13] = assay: Anti-migration activity in human SW480 cells assessed as loss of actin cytoskeletal fibers at 3 to 12 uM by immunofluorescence assay; format: functional, cell-based; conditions: dose 3-12 µM
[14] = Toxicity in BALB/c mouse xenografted with human HCT-116 cells assessed as histopathological change in liver at 20 mg/kg,ip administrated for 2 weeks by hematoxylin and eosin staining based analysis; format: organism-based; conditions: in vivo, 336 h
[15] = Hepatotoxicity in ICR mouse assessed as change in serum ALT level at 60 mg/kg,po administrated for 1 week; format: toxicity, organism-based; conditions: in vivo, 168 h, time 1 weeks
HCT-116 [16] = assay: Antiproliferative activity against human HCT-116 cells assessed as inhibition of colony formation incubated for 2 weeks by crystal violet staining method; format: functional, cell-based
HCT-116 [17] = assay: Antitumor activity against human HCT-116 cells xenografted in BALB/c mouse assessed as downregulation of N-cad expression in tumor at 20 mg/kg,ip administrated for 2 weeks by Western blotting analysis; format: functional, organism-based
SW480 [18] = assay: Anti-migration activity in human SW480 cells assessed as change in FAK expression at 3 to 12 uM by Western blotting analysis; format: functional, cell-based; conditions: dose 3-12 µM
HCT-116 [19] = assay: Anti-migration activity in human HCT-116 cells assessed as change in N-cad expression at 3 to 12 uM by Western blotting analysis; format: functional, cell-based; conditions: dose 3-12 µM
HCT-116 [20] = assay: cells; conditions: Homo sapiens, HCT-116, 48 h
Description: Antiproliferative activity against human HCT-116 cells assessed as inhibition of cell growth incubated for 48 hrs by MTT assay

HCT-116 [21] = assay: Antitumor activity against human HCT-116 cells xenografted in BALB/c mouse assessed as decrease in Ki67 expression in tumor tissue at ip administrated for 2 weeks by immunohistochemical analysis; format: functional, organism-based
[22] = Toxicity in BALB/c mouse xenografted with human HCT-116 cells assessed as change in liver weight at 20 mg/kg,ip administrated for 2 weeks; format: organism-based; conditions: in vivo, 336 h
RKO = assay: Anti-migration activity in human RKO cells assessed as loss of actin cytoskeletal fibers at 3 to 12 uM by immunofluorescence assay; format: functional, cell-based; conditions: dose 3-12 µM
SW480 [23] = assay: Induction of cell cycle arrest in human SW480 cells assessed as downregulation of CDC2 expression at 1.5 to 6 uM by immunoblotting analysis; format: functional, cell-based; conditions: dose 1.5-6 µM
HCT-116 [24] = assay: Antitumor activity against human HCT-116 cells xenografted in BALB/c mouse assessed as downregulation of FAK expression in tumor at 20 mg/kg,ip administrated for 2 weeks by Western blotting analysis; format: functional, organism-based
[25] = Toxicity in BALB/c mouse xenografted with human HCT-116 cells assessed as histopathological change in kidney at 10 mg/kg,ip administrated for 2 weeks by hematoxylin and eosin staining based analysis; format: organism-based; conditions: in vivo, 336 h
HCT-116 [26] = assay: Antitumor activity against human HCT-116 cells xenografted in BALB/c mouse assessed as downregulation of FAK phosphorylation in tumor at 20 mg/kg,ip administrated for 2 weeks by Western blotting analysis; format: functional, organism-based
HCT-116 [27] = assay: Induction of cell cycle arrest in human HCT-116 cells assessed as downregulation of cyclin B1 expression at 1.5 to 6 uM by immunoblotting analysis; format: functional, cell-based; conditions: dose 1.5-6 µM
[28] = Hepatotoxicity in ICR mouse assessed as change in serum creatinine level at 60 mg/kg,po administrated for 1 week; format: toxicity, organism-based; conditions: in vivo, 168 h, time 1 weeks
SW480 [29] = assay: cells; conditions: Homo sapiens, SW480, 48 h
Description: Antiproliferative activity against human SW480 cells assessed as inhibition of cell growth incubated for 48 hrs by MTT assay

HCT-116 [30] = assay: Antitumor activity against human HCT-116 cells xenografted in BALB/c mouse assessed as upregulation of E-cad expression in tumor at 20 mg/kg,ip administrated for 2 weeks by Western blotting analysis; format: functional, organism-based
SW480 [31] = assay: Antiproliferative activity against human SW480 cells assessed as inhibition of colony formation incubated for 2 weeks by crystal violet staining method; format: functional, cell-based
[32] = Toxicity in BALB/c mouse xenografted with human HCT-116 cells assessed as change in serum creatinine level at 20 mg/kg,ip administrated for 2 weeks; format: organism-based; conditions: in vivo, 336 h
[33] = Toxicity in ICR mouse assessed as change in spleen weight at 20 mg/kg,po administrated for 1 week; format: organism-based; conditions: in vivo, 168 h, time 1 weeks
[34] = Hepatotoxicity in ICR mouse assessed as change in serum ALT level at 20 mg/kg,po administrated for 1 week; format: toxicity, organism-based; conditions: in vivo, 168 h, time 1 weeks
[35] = Toxicity in BALB/c mouse xenografted with human HCT-116 cells assessed as change in kidney weight at 10 mg/kg,ip administrated for 2 weeks; format: organism-based; conditions: in vivo, 336 h
SW480 [36] = assay: Anti-migration activity in human SW480 cells assessed as change in N-cad expression at 3 to 12 uM by Western blotting analysis; format: functional, cell-based; conditions: dose 3-12 µM
HCT-116 [37] = assay: Antitumor activity against human HCT-116 cells xenografted in BALB/c mouse assessed as decrease in FAK expression in tumor tissue at ip administrated for 2 weeks by immunohistochemical analysis; format: functional, organism-based
HCT-116 [38] = assay: Antitumor activity against human HCT-116 cells xenografted in BALB/c mouse assessed as change in cell morphology at 10 mg/kg,ip administrated for 2 weeks by hematoxylin and eosin staining based analysis; format: functional, organism-based
HCT-116 [39] = assay: Antitumor activity against human HCT-116 cells xenografted in BALB/c mouse assessed as downregulation of FGFR4 signalling pathway in tumor at 10 mg/kg,ip administrated for 2 weeks by Western blotting analysis; format: functional, organism-based
[40] = Toxicity in ICR mouse assessed as change in kidney weight at 60 mg/kg,po administrated for 1 week; format: organism-based; conditions: in vivo, 168 h, time 1 weeks

C=CC(=O)NCCCn1c(=O)c(-c2c(Cl)c(OC)cc(OC)c2Cl)cc2cnc(Nc3c(C)cccc3NC(=O)C=C)cc21
Activity [1]: Non-Toxic
Activity [2]: Non-Toxic
Activity [3]: Non-Toxic
Activity [4]: Non-Toxic
Activity [5]: Non-Toxic
Activity [6]: Non-Toxic
Activity (HCT-116 [7]): Dose-Dependent Effect
Drug uptake [8]: Active
Activity [9]: Non-Toxic
Activity [10]: Non-Toxic
IC50 at 48 h [11]: 23.8 µM
Activity (SW480 [12]): Dose-Dependent Effect
Activity (SW480 [13]): Active
Activity [14]: Non-Toxic
Activity [15]: Non-Toxic
Activity (HCT-116 [16]): Dose-Dependent Effect
Activity (HCT-116 [17]): Active
Activity (SW480 [18]): inactive
Activity (HCT-116 [19]): inactive
IC50 (HCT-116 [20]): 4.24 µM
Activity (HCT-116 [21]): Dose-Dependent Effect
Activity [22]: Non-Toxic
Activity (RKO): Active
Activity (SW480 [23]): Active
Activity (HCT-116 [24]): Active
Activity [25]: Non-Toxic
Activity (HCT-116 [26]): Active
Activity (HCT-116 [27]): Active
Activity [28]: Non-Toxic
IC50 (SW480 [29]): 6.99 µM
Activity (HCT-116 [30]): Active
Activity (SW480 [31]): Dose-Dependent Effect
Activity [32]: Non-Toxic
Activity [33]: Non-Toxic
Activity [34]: Non-Toxic
Activity [35]: Non-Toxic
Activity (SW480 [36]): inactive
Activity (HCT-116 [37]): Dose-Dependent Effect
Activity (HCT-116 [38]): Active
Activity (HCT-116 [39]): Active
Activity [40]: Non-Toxic
